Assays:
Test in all cases: relative viability (nuclei count vs DMSO), 5 days (fraction); higher = more cells survive
[1] = compound: CN1CCC(CC1)OC2=CC(=C(C=C2)NC3=NC=C4C(=N3)N(C(=O)N4C)C5CCCC5)OC [AZ3146] + CS(=O)(=O)CCNCc1ccc(-c2ccc3ncnc(Nc4ccc(OCc5cccc(F)c5)c(Cl)c4)c3c2)o1 [Lapatinib] (partner 2 µM)
Outline: (§1)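 Five library-drug doses in √10 steps were combined with a fixed anchor-drug dose, or a single drug was given alone, by pin tool to lung cancer cell lines in 1536-well plates the day after seeding. Nuclei were stained and counted after 5 days. Relative viability is the nuclei count in treated wells over that in vehicle wells, taken as the median of duplicate plates.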

[2] = compound: CCOC(=O)CCNc1cc(N2CCc3ccccc3CC2)nc(-c2ccccn2)n1 [GSK-J4] + N=C(N)NC(=N)NCCc1ccccc1 [Phenformin] (partner 250 µM)
Outline: as §1

[3] = compound: CCOC(=O)CCNc1cc(N2CCc3ccccc3CC2)nc(-c2ccccn2)n1 [GSK-J4] + O=C(CCCCCCC(=O)Nc1ccccc1)NO [Vorinostat] (partner 1 µM)
Outline: as §1

[4] = compound: CN1CCC(CC1)OC2=CC(=C(C=C2)NC3=NC=C4C(=N3)N(C(=O)N4C)C5CCCC5)OC [AZ3146] + O=C(CCCCCCC(=O)Nc1ccccc1)NO [Vorinostat] (partner 1 µM)
Outline: as §1

In the case of PC-3 [JPC-3], the relative viability ([1]; first compound 0.08 µM) is reported as 0.368, the relative viability ([1]; first compound 0.253 µM) is reported as 0.459 and the relative viability ([1]; first compound 0.8 µM) is reported as 0.419. For the same cell line, the relative viability ([1]; first compound 2.53 µM) was 0.47, the relative viability ([1]; first compound 8 µM) was 0.444 and the relative viability ([2]; first compound 0.5 µM) was 0.481. For the same cell line, the relative viability ([2]; first compound 1.581 µM) was 0.48, the relative viability ([2]; first compound 5 µM) was 0.521 and the relative viability ([2]; first compound 15.81 µM) was 0.5. It also gave a relative viability ([2]; first compound 50 µM) of 0.488, a relative viability ([3]; first compound 0.5 µM) of 1.05 and a relative viability ([3]; first compound 1.581 µM) of 0.723. For the same cell line, the relative viability ([3]; first compound 5 µM) was 0.671, the relative viability ([3]; first compound 15.81 µM) was 0.624 and the relative viability ([3]; first compound 50 µM) was 0.725. The relative viability ([4]; first compound 0.08 µM) was 0.554, the relative viability ([4]; first compound 0.8 µM) was 0.803 and the relative viability ([4]; first compound 2.53 µM) was 0.66. It also gave a relative viability ([4]; first compound 8 µM) of 0.713.
Work on NCI-H1915 yielded a relative viability ([1]; first compound 0.08 µM) of 1.05, a relative viability ([1]; first compound 0.253 µM) of 0.864 and a relative viability ([1]; first compound 0.8 µM) of 1.04. It also gave a relative viability ([1]; first compound 2.53 µM) of 0.933, a relative viability ([1]; first compound 8 µM) of 1.02 and a relative viability ([2]; first compound 0.5 µM) of 0.36. For the same cell line, the relative viability ([2]; first compound 1.581 µM) was 0.327, the relative viability ([2]; first compound 15.81 µM) was 0.369 and the relative viability ([2]; first compound 50 µM) was 0.388. The relative viability ([3]; first compound 0.5 µM) was 0.452, the relative viability ([3]; first compound 1.581 µM) was 0.481 and the relative viability ([3]; first compound 15.81 µM) was 0.417. For the same cell line, the relative viability ([3]; first compound 50 µM) was 0.483, the relative viability ([4]; first compound 0.08 µM) was 0.371 and the relative viability ([4]; first compound 0.253 µM) was 0.513. It also gave a relative viability ([4]; first compound 0.8 µM) of 0.535, a relative viability ([4]; first compound 2.53 µM) of 0.559 and a relative viability ([4]; first compound 8 µM) of 0.498.
For HOP-62, the relative viability ([1]; first compound 0.08 µM) was 0.958, the relative viability ([1]; first compound 0.253 µM) was 0.975 and the relative viability ([1]; first compound 0.8 µM) was 0.941. The relative viability ([1]; first compound 2.53 µM) was 0.846, the relative viability ([1]; first compound 8 µM) was 1.06 and the relative viability ([2]; first compound 0.5 µM) was 0.612. It also gave a relative viability ([2]; first compound 1.581 µM) of 0.548, a relative viability ([2]; first compound 5 µM) of 0.558 and a relative viability ([2]; first compound 15.81 µM) of 0.665. It also gave a relative viability ([2]; first compound 50 µM) of 0.528, a relative viability ([3]; first compound 0.5 µM) of 0.48 and a relative viability ([3]; first compound 1.581 µM) of 0.355. For the same cell line, the relative viability ([3]; first compound 5 µM) was 0.585, the relative viability ([3]; first compound 15.81 µM) was 0.507 and the relative viability ([3]; first compound 50 µM) was 0.35. For the same cell line, the relative viability ([4]; first compound 0.08 µM) was 0.337, the relative viability ([4]; first compound 0.253 µM) was 0.664 and the relative viability ([4]; first compound 0.8 µM) was 0.598. It also gave a relative viability ([4]; first compound 2.53 µM) of 0.699 and a relative viability ([4]; first compound 8 µM) of 0.385.
Work on LCLC-103H yielded a relative viability ([2]; first compound 0.5 µM) of 0.32, a relative viability ([2]; first compound 1.581 µM) of 0.296 and a relative viability ([2]; first compound 5 µM) of 0.224. The relative viability ([2]; first compound 15.81 µM) was 0.331, the relative viability ([2]; first compound 50 µM) was 0.33 and the relative viability ([3]; first compound 0.5 µM) was 0.77. For the same cell line, the relative viability ([3]; first compound 1.581 µM) was 0.671, the relative viability ([3]; first compound 5 µM) was 0.624 and the relative viability ([3]; first compound 15.81 µM) was 0.675. The relative viability ([3]; first compound 50 µM) was 0.546, the relative viability ([4]; first compound 0.08 µM) was 0.51 and the relative viability ([4]; first compound 0.253 µM) was 0.726. For the same cell line, the relative viability ([4]; first compound 0.8 µM) was 0.78, the relative viability ([4]; first compound 2.53 µM) was 0.844 and the relative viability ([4]; first compound 8 µM) was 0.711.
NCI-H460 gave a relative viability ([1]; first compound 0.08 µM) of 0.877, a relative viability ([1]; first compound 0.253 µM) of 1.11 and a relative viability ([1]; first compound 0.8 µM) of 0.937. The relative viability ([1]; first compound 2.53 µM) was 0.817, the relative viability ([1]; first compound 8 µM) was 0.656 and the relative viability ([2]; first compound 0.5 µM) was 0.515. For the same cell line, the relative viability ([2]; first compound 1.581 µM) was 0.365, the relative viability ([2]; first compound 5 µM) was 0.361 and the relative viability ([2]; first compound 15.81 µM) was 0.472. It also gave a relative viability ([2]; first compound 50 µM) of 0.398, a relative viability ([3]; first compound 0.5 µM) of 0.663 and a relative viability ([3]; first compound 5 µM) of 0.623. The relative viability ([3]; first compound 15.81 µM) was 0.67, the relative viability ([3]; first compound 50 µM) was 0.656 and the relative viability ([4]; first compound 0.08 µM) was 0.623. For the same cell line, the relative viability ([4]; first compound 0.253 µM) was 0.813, the relative viability ([4]; first compound 0.8 µM) was 0.707 and the relative viability ([4]; first compound 2.53 µM) was 0.693. The relative viability ([4]; first compound 8 µM) was 0.0632.
Work on NCI-H441 yielded a relative viability ([2]; first compound 0.5 µM) of 0.819, a relative viability ([2]; first compound 1.581 µM) of 0.852 and a relative viability ([2]; first compound 5 µM) of 0.641. The relative viability ([2]; first compound 15.81 µM) was 0.805, the relative viability ([2]; first compound 50 µM) was 0.809 and the relative viability ([3]; first compound 0.5 µM) was 0.716. For the same cell line, the relative viability ([3]; first compound 1.581 µM) was 0.602, the relative viability ([3]; first compound 5 µM) was 0.779 and the relative viability ([3]; first compound 15.81 µM) was 0.714. The relative viability ([3]; first compound 50 µM) was 0.715, the relative viability ([4]; first compound 0.08 µM) was 0.674 and the relative viability ([4]; first compound 0.253 µM) was 0.803. The relative viability ([4]; first compound 0.8 µM) was 0.557, the relative viability ([4]; first compound 2.53 µM) was 0.821 and the relative viability ([4]; first compound 8 µM) was 0.647.
Work on SK-LU-1 yielded a relative viability ([1]; first compound 0.08 µM) of 0.803, a relative viability ([1]; first compound 0.253 µM) of 0.972 and a relative viability ([1]; first compound 0.8 µM) of 0.825. It also gave a relative viability ([1]; first compound 2.53 µM) of 1.13, a relative viability ([1]; first compound 8 µM) of 0.697 and a relative viability ([2]; first compound 0.5 µM) of 0.48. For the same cell line, the relative viability ([2]; first compound 1.581 µM) was 0.495, the relative viability ([2]; first compound 5 µM) was 0.323 and the relative viability ([2]; first compound 15.81 µM) was 0.365. For the same cell line, the relative viability ([2]; first compound 50 µM) was 0.245, the relative viability ([3]; first compound 0.5 µM) was 0.751 and the relative viability ([3]; first compound 1.581 µM) was 0.679. For the same cell line, the relative viability ([3]; first compound 5 µM) was 0.626, the relative viability ([3]; first compound 15.81 µM) was 0.58 and the relative viability ([3]; first compound 50 µM) was 0.578. The relative viability ([4]; first compound 0.08 µM) was 0.746, the relative viability ([4]; first compound 0.253 µM) was 0.854 and the relative viability ([4]; first compound 0.8 µM) was 0.752. It also gave a relative viability ([4]; first compound 2.53 µM) of 0.792 and a relative viability ([4]; first compound 8 µM) of 0.504.
For Calu-6, the relative viability ([1]; first compound 0.08 µM) was 1.07, the relative viability ([1]; first compound 0.253 µM) was 1.16 and the relative viability ([1]; first compound 0.8 µM) was 1.01. For the same cell line, the relative viability ([1]; first compound 2.53 µM) was 1 and the relative viability ([1]; first compound 8 µM) was 0.397.
NCI-H2228 gave a relative viability ([1]; first compound 0.08 µM) of 1.08, a relative viability ([1]; first compound 0.253 µM) of 1.13 and a relative viability ([1]; first compound 0.8 µM) of 1.21. The relative viability ([1]; first compound 2.53 µM) was 1.23, the relative viability ([1]; first compound 8 µM) was 0.889 and the relative viability ([2]; first compound 0.5 µM) was 0.331. The relative viability ([2]; first compound 1.581 µM) was 0.205, the relative viability ([2]; first compound 5 µM) was 0.42 and the relative viability ([2]; first compound 15.81 µM) was 0.244. The relative viability ([2]; first compound 50 µM) was 0.355, the relative viability ([3]; first compound 0.5 µM) was 0.642 and the relative viability ([3]; first compound 1.581 µM) was 0.873. For the same cell line, the relative viability ([3]; first compound 5 µM) was 0.823, the relative viability ([3]; first compound 15.81 µM) was 0.617 and the relative viability ([3]; first compound 50 µM) was 0.797. It also gave a relative viability ([4]; first compound 0.08 µM) of 0.589, a relative viability ([4]; first compound 0.253 µM) of 0.695 and a relative viability ([4]; first compound 0.8 µM) of 0.874. The relative viability ([4]; first compound 2.53 µM) was 0.956 and the relative viability ([4]; first compound 8 µM) was 0.674.
